Values quoted from earlier work as cited in patent publication US6500450B1, “Composition for treating migraine headaches” (priority 1998, dated 2002).
Structures can show the parent of a compound that is named as a salt.

Legend:
[1] = system: migraine; conditions: in vivo
[2] = system: patients with migraine
[3] = system: migraine occurrence in patients
[4] = system: patients with recurrent migraines; conditions: 49 patients
[5] = system: moderate to severe migraine headaches
[6] = 400 mg/day with breakfast for at least three months

For `CC(C)NCC(O)COc1cccc2ccccc12` (stereo not drawn) [Propranolol], the “efficacy in migraine prophylaxis” value [1] is given as “effective” and the side effects [1] is given as “fatigue, depression, impotence, insomnia, dizziness, and cold extremities”.
In the case of `CN1C[C@H](C(=O)N[C@]2(C)O[C@@]3(O)[C@@H]4CCCN4C(=O)[C@H](Cc4ccccc4)N3C2=O)C=C2c3cccc4[nH]cc(c34)C[C@H]21` [ergotamine, ergotamine tartrate], the “patients with complete headache relief within three hours of taking the drug” value ([2]; 1-mg rectal suppository, patients with migraine) is given as 73%, the “consequence of frequent use” value ([2]; frequent use of the drug) is given as “rebound headache” and the side effects ([2]; human, in vivo) is given as “nausea, vomiting, abdominal pain, muscle cramps, and occasionally, distal paresthesias”.
For `CC[C@@H](CO)NC(=O)[C@@H]1C=C2c3cccc4c3c(cn4C)C[C@H]2N(C)C1` [methysergide, methysergide maleate], the “patients in whom migraine occurrence is reduced by more than half” value ([3]; 6 mg dose, migraine prophylaxis) is given as 60% and the “adverse effect of long-term use” value ([3]; long-term use) is given as “associated with retroperitoneal fibrosis”.
For `Cc1cc2nc3c(=O)[nH]c(=O)nc-3n(C[C@H](O)[C@H](O)[C@H](O)CO)c2cc1C` [riboflavin], the side effects ([4]; 400 mg/day for at least three months) is listed as “One patient stopped treatment because of gastric intolerance, but no other side effects were reported”, the “fall in the mean number of migraine attacks” value [4, 6] is listed as 67% and the “improvement of migraine severity” value [4, 6] is listed as 68%.
For `CNS(=O)(=O)Cc1ccc2[nH]cc(CCN(C)C)c2c1` [sumatriptan], the “reduction of the intensity of moderate to severe migraine headaches” value ([5]; dose of six milligrams, injectable) is listed as 70% and the side effects ([5]; stated for this type of drug) is listed as “distal paresthesias, tingling, heaviness, and a sensation of pressure”.
